Reference: patent US8952150B2, “Prostaglandin transporter inhibitors and uses thereof” (Albert Einstein College of Medicine of Yeshiva University, priority 2009, dated 2015)

Columns and labels:
rat PGT = rat PGT (Rattus norvegicus (Rat), UniProt Q00910); experiment: [3H]PGE2 uptake inhibition in MDCK cells stably transfected with rat PGT (percent inhibition and IC50); format: cell-based; details: for Inh (% of Ctl) 0.1 μM: 0.1 μM compound; for Inh (% of Ctl) 0.1 μM / Inh (% of Ctl) 0.5 μM / Inh (% of Ctl) 2.5 μM / Inh (% of Ctl) 5 μM / Inh (% of Ctl) 1 μM / Inh (% of Ctl) 10 μM: inhibition of [3H]PGE2 uptake; for Inh (% of Ctl) 0.5 μM: 0.5 μM compound; for Inh (% of Ctl) 2.5 μM: 2.5 μM compound; for Inh (% of Ctl) 5 μM: 5 μM compound; for IC50: [3H]PGE2 uptake, MDCK cells stably transfected with rat PGT; for Inh (% of Ctl) 1 μM: 1 μM compound; for Inh (% of Ctl) 10 μM: 10 μM compound
Outline: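 Rat PGT-transfected MDCK cells, on day 4 after seeding, took up [3H]PGE2 in Waymouth buffer at room temperature, with compound (EtOH stock diluted in buffer) added immediately before tracer. Intracellular radioactivity counted after lysis; percent inhibition versus vehicle, IC50 by fitting y=m1−m1*(m0/(m2+m0)).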

full-thickness wounds = experiment: Wound healing: topical application to full-thickness wounds on the back of mice; format: in vivo; details: 5 mm full-thickness wounds
Method: FIG. 1A-1B. Prostaglandin transporter (PGT) inhibitors accelerate wound healing. […] B. Averaged wound areas of 4 mice, each of them had 2 wounds and received topically applied vehicle Veh1 (2% DMSO+2% cremophor in water) on one wound and T26A on the other. On the wounds of a separate group of 4 mice, vehicle Veh2 (2% EtOH) was applied to one wound and 200 μM PGE2 was applied to the other.
Studies were conducted using compound T26A (Table 1). Two full-thickness wounds with diameter of 5 mm were created on the back of mice symmetrically under the shoulder blades. 50 μL vehicle (2% DMSO+2% cremophor in water) was applied to one wound (FIG. 1A, top panel), and that of 2 mM T26A was applied to the other (FIG. 1A, bottom panel), immediately after surgery and every other day afterwards. […] On the wounds of a separate group of 4 mice, vehicle Veh2 (2% EtOH, yellow) was applied to one wound and 200 μM PGE2 (green) was applied to the other. Results were statistically significant (p<0.05, T26A vs. vehicle).

Inh (% of Ctl) 0.5 μM (rat PGT)	Inh (% of Ctl) 5 μM (rat PGT)	IC50 (rat PGT)	Inh (% of Ctl) 1 μM (rat PGT)	Inh (% of Ctl) 10 μM (rat PGT)	SMILES	other results
67.6 % of Ctl	88.2 % of Ctl	820 nM	–	–	COc1cccc(CNC(=O)c2ccc(Nc3nc(NCCOCCOCCNC(=O)c4ccccc4)nc(Nc4ccc(O)cc4)n3)cc2)c1 [compound 88]	Inh (% of Ctl) 0.1 μM (rat PGT): 61.8 % of Ctl; Inh (% of Ctl) 2.5 μM (rat PGT): 82.6 % of Ctl
–	–	–	22.8 % of Ctl	63.0 % of Ctl	O=S(=O)(NCCOCCOCCNc1nc(Nc2ccccc2)nc(Nc2ccc(O)cc2)n1)c1ccccc1 [compound 38]	–
56.3 % of Ctl	91.3 % of Ctl	–	–	–	Cc1cccc(CNC(=O)c2ccc(Nc3nc(NCCOCCOCCNC(=O)c4ccccc4)nc(Nc4ccc(O)cc4)n3)cc2)c1 [compound 107]	Inh (% of Ctl) 0.1 μM (rat PGT): 65.2 % of Ctl; Inh (% of Ctl) 2.5 μM (rat PGT): 80.7 % of Ctl
–	29.5 % of Ctl	5570 nM	27.4 % of Ctl	56.6 % of Ctl	O=C(O)Cc1ccc(Nc2nc(NCCOCCOCCNC(=O)c3ccccc3)nc(Nc3ccccc3)n2)cc1 [compound 57]	–
–	–	–	0.3 % of Ctl	6.6 % of Ctl	CC(=O)NCCOCCOCCNc1nc(Nc2ccccc2)nc(Nc2ccc(O)cc2)n1 [compound 41]	–
–	19.4 % of Ctl	–	13.1 % of Ctl	30.8 % of Ctl	O=C(CCCCCCNc1nc(Nc2ccccc2)nc(Nc2ccc(O)cc2)n1)NCc1ccccc1 [compound 97]	–
–	–	–	38.0 % of Ctl	80.5 % of Ctl	O=C(NCCOCCOCCNc1nc(Nc2ccccc2)nc(Nc2ccc(O)c(Cl)c2)n1)c1ccccc1 [compound 56]	–
57.8 % of Ctl	–	16.5 nM	69.5 % of Ctl	–	O=C(NCCOCCOCCNc1nc(Nc2ccc(C(=O)NCc3ccc(F)cc3)cc2)nc(Nc2ccc(O)c(F)c2)n1)c1ccccc1 [compound 143]	Inh (% of Ctl) 0.1 μM (rat PGT): 33.7 % of Ctl
72.65 % of Ctl	–	378 nM	–	–	[N-]=[N+]=NCCOCCOCCNC(=O)c1ccc(Nc2nc(NCCOCCOCCNC(=O)c3ccccc3)nc(Nc3ccc(O)cc3)n2)cc1 [T26A, reference compound]	vascularization and blood flow in the wound (full-thickness wounds; 2 mM T26A applied topically): increased vascularization and blood flow in the wound; wound healing (wound area) (full-thickness wounds; 50 μL of 2 mM T26A topically immediately after surgery and every other day, 10 day period, vs vehicle (2% DMSO+2% cremophor in water), p<0.05 T26A vs. vehicle): accelerates wound healing
11.4 % of Ctl	29.9 % of Ctl	–	–	–	COCCOCCOCCNc1nc(NCCOCCOCCNC(=O)c2ccccc2)nc(Nc2ccc(O)cc2)n1 [compound 11]	–
1.3 % of Ctl	18.8 % of Ctl	–	–	–	CN(C)c1nc(NCCOCCOCCNC(=O)c2ccccc2)nc(Nc2ccc(O)cc2)n1 [compound 9]	–
24.9 % of Ctl	83.2 % of Ctl	890 nM	–	–	O=C(NCCOCCOCCNc1nc(Nc2ccc(O)cc2)nc(Nc2ccc(C(=O)OCc3ccccc3)cc2)n1)c1ccccc1 [compound 69]	–
15.7 % of Ctl	68.2 % of Ctl	–	–	–	O=C(NCCO)c1ccc(Nc2nc(NCCOCCOCCNC(=O)c3ccccc3)nc(Nc3ccc(O)cc3)n2)cc1 [compound 21]	–
